Measurements from ChEMBL document CHEMBL3638749, “Bicyclic thiazole compounds” (2015).

Biological target: TRAF2 and NCK-interacting protein kinase (Homo sapiens, UniProt Q9UKE5)
Experiment: Kinase Assay: The kinase assays were conducted in a 20 μl volume using 384-well plates (Greiner). The reaction mixture consists of compound or vehicle (1% DMSO), 0.08 ng/μl TNIK_N, 1 μM FITC-labeled substrate peptides, including ε-aminocaproic acid and 7 amino acids (described as SEQ ID NO. 3 in "Kinase assay of TEST EXAMPLE 1" of WO 2010/064111(P.31)), 20 mM Hepes, pH 7.5, 0.01% Triton X-100, 5 mM MgCl2, 25 μM ATP and 2 mM DTT. As blank, TNIK_N was excluded from the reaction mixture of vehicle (1% DMSO). The kinase reaction was carried out 1 h at room temperature and terminated by addition of 60 μl of the termination buffer (127 mM Hepes, pH 7.5, 26.7 mM EDTA, 0.01% Triton X-100, 1% DMSO and 0.13% Coating Reagent 3 (Caliper Life Sciences)). The amount of unphosphorylated and phosphorylated FITC-labeled substrate peptides was detected by Mobility Shift Micro Fluidic Technology (Caliper LC3000 System, Caliper Life Sciences).

Sequence of TRAF2 and NCK-interacting protein kinase (Q9UKE5 whole entry): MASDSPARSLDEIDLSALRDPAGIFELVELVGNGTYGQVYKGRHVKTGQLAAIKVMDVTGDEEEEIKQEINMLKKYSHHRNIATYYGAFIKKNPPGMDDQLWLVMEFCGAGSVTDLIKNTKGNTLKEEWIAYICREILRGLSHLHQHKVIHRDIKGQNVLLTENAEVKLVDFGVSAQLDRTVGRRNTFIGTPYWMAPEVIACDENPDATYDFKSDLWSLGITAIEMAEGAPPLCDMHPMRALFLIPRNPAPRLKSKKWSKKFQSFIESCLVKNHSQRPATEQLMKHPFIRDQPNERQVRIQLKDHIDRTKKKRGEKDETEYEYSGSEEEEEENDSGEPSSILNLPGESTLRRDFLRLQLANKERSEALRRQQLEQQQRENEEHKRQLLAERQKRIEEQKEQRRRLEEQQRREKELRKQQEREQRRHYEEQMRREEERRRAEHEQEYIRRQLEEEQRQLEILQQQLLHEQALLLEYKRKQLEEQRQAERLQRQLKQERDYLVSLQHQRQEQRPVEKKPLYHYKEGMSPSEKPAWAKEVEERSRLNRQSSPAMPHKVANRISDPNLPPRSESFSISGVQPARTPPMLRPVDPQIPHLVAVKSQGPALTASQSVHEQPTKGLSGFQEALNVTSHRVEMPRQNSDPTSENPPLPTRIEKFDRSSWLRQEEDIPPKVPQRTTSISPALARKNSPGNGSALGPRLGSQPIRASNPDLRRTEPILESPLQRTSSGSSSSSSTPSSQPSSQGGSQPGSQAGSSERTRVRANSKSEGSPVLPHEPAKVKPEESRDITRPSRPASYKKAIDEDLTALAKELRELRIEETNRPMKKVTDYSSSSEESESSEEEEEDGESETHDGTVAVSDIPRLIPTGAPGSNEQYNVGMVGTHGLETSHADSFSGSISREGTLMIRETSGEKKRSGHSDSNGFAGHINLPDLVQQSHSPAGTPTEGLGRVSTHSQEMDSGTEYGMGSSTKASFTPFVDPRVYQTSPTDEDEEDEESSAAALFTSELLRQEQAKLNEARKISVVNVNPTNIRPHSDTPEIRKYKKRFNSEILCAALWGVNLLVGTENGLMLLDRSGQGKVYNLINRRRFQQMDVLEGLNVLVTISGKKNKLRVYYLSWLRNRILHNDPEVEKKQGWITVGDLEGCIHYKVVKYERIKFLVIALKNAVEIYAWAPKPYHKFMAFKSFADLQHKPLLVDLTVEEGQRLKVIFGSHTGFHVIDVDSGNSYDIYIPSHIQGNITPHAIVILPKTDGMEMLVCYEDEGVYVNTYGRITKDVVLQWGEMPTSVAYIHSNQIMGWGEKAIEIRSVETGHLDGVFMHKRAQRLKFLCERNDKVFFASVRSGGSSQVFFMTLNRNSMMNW

First: NC(=O)c1nc(Nc2ccc3cc(F)ccc3c2)sc1NC(=O)c1ccc(NCCO)cc1
Second: NC(=O)c1nc(Nc2ccc3ccccc3c2)sc1NC(=O)c1ccc(Cn2ccnc2[N+](=O)[O-])cc1
The IC50 of the first is 2.4-fold higher: 22.5 nM for the first, 9.5 nM for the second. The second is the more potent here.

In the case of CC#CC(=O)Nc1sc(Nc2ccc3ccccc3c2)nc1C(N)=O, the IC50 is reported as 4.4 nM.
